Measured values as given in patent US6525001B1, “Substituted pyrimidine and pyridine herbicides” (Mid-American Commercialization Corporation, priority 1997, dated 2003).

Experiments:
Assay type in all cases: in vivo
Set-up in all cases: key: 0 is no effect; 10 is complete control
rice (Oryza sativa) = test: Test B flood test
Outline: (§1)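 Flood test on plants grown to the 2-leaf stage; treated plants kept in greenhouse twelve to sixteen days, then visually rated against controls on a 0 (no effect) to 10 (complete control) scale.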

[1] = test system: duck salad (Heteranthera limosa); test: Test B flood test
Outline: as §1

[2] = test system: bamyardgrass (Echinochloa crus-galli); test: Test B flood test
Outline: as §1

[3] = test system: smallflower flatsedge (Cyperus difformis); test: Test B flood test
Outline: as §1

[4] = test system: momingglory (Ipomoea hederacea); test: Test B pre-/postemergence; conditions: for Plant response rating, Morningglory: Preemergence; for Morningglory plant response rating: Postemergence
Outline: (§2)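 Scored visually 0 (none) to 10 (complete control) against untreated plants after twelve to sixteen greenhouse days. Test chemicals, formulated in surfactant-containing non-phytotoxic solvent, applied to soil after planting and, separately, onto 1- to 4-leaf (2–18 cm) plants.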

[5] = test system: blackgrass (Alopecurus myosuroides); test: Test B pre-/postemergence; conditions: for Plant response rating, Blackgrass: Preemergence; for Blackgrass plant response rating: Postemergence
Outline: as §2

[6] = test system: cocklebur (Xanthium strumarium); test: Test B pre-/postemergence; conditions: for Plant response rating, Cocklebur: Preemergence; for Cocklebur plant response rating: Postemergence
Outline: as §2

rape (Brassica napus) = test: Test B pre-/postemergence; conditions: for Plant response rating, Rape: Preemergence; for Rape plant response rating: Postemergence
Outline: as §2

corn (Zea mays) = test: Test B pre-/postemergence; conditions: for Plant response rating, Corn: Preemergence; for Corn plant response rating: Postemergence
Outline: as §2

[7] = test system: giant foxtail (Setaria faberii); test: Test B pre-/postemergence; conditions: for Plant response rating, Giant foxtail: Preemergence; for Giant foxtail plant response rating: Postemergence
Outline: as §2

[8] = test system: broadleaf signalgrass (Brachiaria decumbens); test: Test B pre-/postemergence
Outline: as §2

[9] = test system: purple nutsedge (Cyperus rotundus); test: Test B pre-/postemergence; conditions: for Plant response rating, Nutsedge: Preemergence
Outline: as §2

wild oat (Avena fatua) = test: Test B pre-/postemergence; conditions: for Plant response rating, Wild oats: Preemergence; for Wild oats plant response rating: Postemergence
Outline: as §2

soybean (Glycine max) = test: Test B pre-/postemergence; conditions: for Plant response rating, Soybean: Preemergence; for Soybean plant response rating: Postemergence
Outline: as §2

[10] = test system: crabgrass (Digitaria sanguinalis); test: Test B pre-/postemergence; conditions: for Plant response rating, Crabgrass: Preemergence; for Crabgrass plant response rating: Postemergence
Outline: as §2

[11] = test system: bedstraw (Galium aparine); test: Test B pre-/postemergence; conditions: for Plant response rating, Bedstraw: Preemergence; for Bedstraw plant response rating: Postemergence
Outline: as §2

[12] = test system: pigweed (Amaranthus retroflexus); test: Test B pre-/postemergence; conditions: for Plant response rating, Redroot pigweed: Preemergence; for Redroot pigweed plant response rating: Postemergence
Outline: as §2

[13] = test system: velvetleaf (Abutilon theophrasti); test: Test B pre-/postemergence; conditions: for Velvetleaf plant response rating: Postemergence
Outline: as §2

[14] = test system: wheat (Triticum aestivum); test: Test B pre-/postemergence; conditions: for Plant response rating, Wheat: Preemergence; for Wheat plant response rating: Postemergence
Outline: as §2

[15] = test system: sugar beet (Beta vulgaris); test: Test B pre-/postemergence; conditions: for Plant response rating, Sugarbeets: Preemergence; for Sugarbeets plant response rating: Postemergence
Outline: as §2

[16] = Rate 62 g/ha, Postemergence (flood test)
[17] = Rate 125 g/ha, Postemergence section (flood test species)

CCc1cnc(-n2ccc(C(F)(F)F)n2)nc1C(=O)c1cccc(C(F)(F)F)c1 [Compound 69]
0: Rice plant response rating (rice (Oryza sativa); [16]) | Ducksalad plant response rating [1, 16] | Plant response rating, Cocklebur ([6]; Rate 62 g/ha, scale of 0 to 10) | Plant response rating, Corn (corn (Zea mays); Rate 62 g/ha, scale of 0 to 10) | Plant response rating, Corn (corn (Zea mays); Rate 125 g/ha) | Plant response rating, Nutsedge ([9]; Rate 62 g/ha, scale of 0 to 10) | Plant response rating, Nutsedge ([9]; Rate 125 g/ha) | Plant response rating, Soybean (soybean (Glycine max); Rate 62 g/ha, scale of 0 to 10)
3: Blackgrass plant response rating ([5]; Rate 125 g/ha) | Giant foxtail plant response rating ([7]; Rate 125 g/ha) | B. signalgrass plant response rating ([8]; Rate 62 g/ha, Postemergence) | B. signalgrass plant response rating ([8]; Rate 125 g/ha, Postemergence) | Wild oats plant response rating (wild oat (Avena fatua); Rate 62 g/ha) | Wild oats plant response rating (wild oat (Avena fatua); Rate 125 g/ha) | Crabgrass plant response rating ([10]; Rate 62 g/ha) | Wheat plant response rating ([14]; Rate 62 g/ha)
9: Morningglory plant response rating ([4]; Rate 62 g/ha) | Plant response rating, B. signalgrass ([8]; Rate 125 g/ha, Preemergence) | Plant response rating, Crabgrass ([10]; Rate 125 g/ha) | Bedstraw plant response rating ([11]; Rate 62 g/ha) | Bedstraw plant response rating ([11]; Rate 125 g/ha) | Plant response rating, Bedstraw ([11]; Rate 125 g/ha) | Plant response rating, Sugarbeets ([15]; Rate 62 g/ha, scale of 0 to 10) | Plant response rating, Sugarbeets ([15]; Rate 125 g/ha)
1: Ducksalad plant response rating [1, 17] | Barnyardgrass plant response rating [2, 16] | Plant response rating, Blackgrass ([5]; Rate 62 g/ha, scale of 0 to 10) | Plant response rating, Soybean (soybean (Glycine max); Rate 125 g/ha) | Plant response rating, Wheat ([14]; Rate 62 g/ha, scale of 0 to 10) | Plant response rating, Wheat ([14]; Rate 125 g/ha)
7: Plant response rating, Rape (rape (Brassica napus); Rate 62 g/ha, scale of 0 to 10) | Plant response rating, Wild oats (wild oat (Avena fatua); Rate 125 g/ha) | Plant response rating, Bedstraw ([11]; Rate 62 g/ha, scale of 0 to 10)
8: Plant response rating, Morningglory ([4]; Rate 62 g/ha, scale of 0 to 10) | Plant response rating, Morningglory ([4]; Rate 125 g/ha) | Cocklebur plant response rating ([6]; Rate 62 g/ha) | Cocklebur plant response rating ([6]; Rate 125 g/ha) | Rape plant response rating (rape (Brassica napus); Rate 125 g/ha) | Plant response rating, Rape (rape (Brassica napus); Rate 125 g/ha) | Plant response rating, Giant foxtail ([7]; Rate 125 g/ha) | B. signalgrass plant response rating ([8]; Rate 62 g/ha, Preemergence) | Plant response rating, Redroot pigweed ([12]; Rate 62 g/ha, scale of 0 to 10) | Velvetleaf plant response rating ([13]; Rate 62 g/ha) | Velvetleaf plant response rating ([13]; Rate 125 g/ha) | Plant response rating, Velvetleaf ([13]; Rate 125 g/ha, Preemergence)
10: Morningglory plant response rating ([4]; Rate 125 g/ha) | Redroot pigweed plant response rating ([12]; Rate 62 g/ha) | Redroot pigweed plant response rating ([12]; Rate 125 g/ha) | Plant response rating, Redroot pigweed ([12]; Rate 125 g/ha) | Sugarbeets plant response rating ([15]; Rate 62 g/ha) | Sugarbeets plant response rating ([15]; Rate 125 g/ha)
6: Rape plant response rating (rape (Brassica napus); Rate 62 g/ha) | Plant response rating, Crabgrass ([10]; Rate 62 g/ha, scale of 0 to 10)
4: S. Flatsedge plant response rating [3, 17] | Plant response rating, Blackgrass ([5]; Rate 125 g/ha) | Plant response rating, Giant foxtail ([7]; Rate 62 g/ha, scale of 0 to 10) | Plant response rating, Wild oats (wild oat (Avena fatua); Rate 62 g/ha, scale of 0 to 10) | Soybean plant response rating (soybean (Glycine max); Rate 62 g/ha) | Soybean plant response rating (soybean (Glycine max); Rate 125 g/ha) | Crabgrass plant response rating ([10]; Rate 125 g/ha) | Wheat plant response rating ([14]; Rate 125 g/ha)
2: Rice plant response rating (rice (Oryza sativa); [17]) | Barnyardgrass plant response rating [2, 17] | S. Flatsedge plant response rating [3, 16] | Blackgrass plant response rating ([5]; Rate 62 g/ha) | Plant response rating, Cocklebur ([6]; Rate 125 g/ha) | Corn plant response rating (corn (Zea mays); Rate 62 g/ha) | Corn plant response rating (corn (Zea mays); Rate 125 g/ha) | Giant foxtail plant response rating ([7]; Rate 62 g/ha) | Nutsedge plant response rating ([9]; Rate 62 g/ha, Postemergence)
